Measured values: ChEMBL document CHEMBL1133193, “4-[3-(5,6,7,8-Tetrahydro-5,5,8,8-tetramethyl-2-naphthalenyl)phenyl]benzoic acid and heterocyclic-bridged analogues are novel retinoic acid receptor subtype and retinoid X receptor alpha agonists” (Bioorg Med Chem Lett, 2000)

Tested on: T47D
Assay: Inhibition of T47D retinoid sensitive breast carcinoma cell proliferation at 1 uM
Type: functional
Conditions: Homo sapiens

Row | SMILES | inhibition at 1 µM [%]
1 | CC1=C(/C=C/C(C)=C\C=C\C(C)=C\C(=O)O)C(C)(C)CCC1 [ALITRETINOIN] | 35
2 | Cc1ccc(-c2ccc(C(=O)O)cc2)cc1-c1ccc2c(c1)C(C)(C)CCC2(C)C | 35
3 | CC1(C)CCC(C)(C)c2cc(-c3cccc(-c4ccc(C(=O)O)cc4)c3)ccc21 | 32
4 | CC1=C(/C=C/C(C)=C/C=C/C(C)=C/C(=O)O)C(C)(C)CCC1 [TRETINOIN] | 39

Tested on: MDA-MB-231
Assay: Growth of MDA-MB-231 retinoid resistant breast carcinoma cells at 1 uM
Conditions: Homo sapiens

Row | SMILES | growth relative to control at 1 µM [%]
5 | CC1=C(/C=C/C(C)=C\C=C\C(C)=C\C(=O)O)C(C)(C)CCC1 [ALITRETINOIN] | 69
6 | Cc1ccc(-c2ccc(C(=O)O)cc2)cc1-c1ccc2c(c1)C(C)(C)CCC2(C)C | 75
7 | CC1(C)CCC(C)(C)c2cc(-c3cccc(-c4ccc(C(=O)O)cc4)c3)ccc21 | 80
8 | CC1=C(/C=C/C(C)=C/C=C/C(C)=C/C(=O)O)C(C)(C)CCC1 [TRETINOIN] | 94

Biological target: T1, Retinoic acid receptor alpha (Homo sapiens, UniProt P10276)
T1 sequence (P10276 whole entry): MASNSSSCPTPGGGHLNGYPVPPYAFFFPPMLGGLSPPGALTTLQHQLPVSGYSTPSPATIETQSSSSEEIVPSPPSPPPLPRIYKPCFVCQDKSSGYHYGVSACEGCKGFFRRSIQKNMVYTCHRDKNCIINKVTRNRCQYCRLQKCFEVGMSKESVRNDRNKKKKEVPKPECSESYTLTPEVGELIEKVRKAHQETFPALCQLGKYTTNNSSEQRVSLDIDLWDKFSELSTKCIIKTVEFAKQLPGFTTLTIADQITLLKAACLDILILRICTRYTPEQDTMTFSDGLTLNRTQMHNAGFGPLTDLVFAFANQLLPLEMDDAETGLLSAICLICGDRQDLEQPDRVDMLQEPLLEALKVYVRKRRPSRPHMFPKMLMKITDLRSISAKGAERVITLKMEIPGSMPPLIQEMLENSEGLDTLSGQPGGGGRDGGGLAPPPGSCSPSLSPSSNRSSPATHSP
Assay: Transcriptional activation in CV-1 cells expressing Retinoic acid receptor alpha
Type: cell-based, Cercopithecidae
Conditions: not given

Row | SMILES | AC50 [nM]
9 | Cc1ccc(-c2ccc(C(=O)O)cc2)cc1-c1ccc2c(c1)C(C)(C)CCC2(C)C | 79
10 | CC1(C)CCC(C)(C)c2cc(-c3cccc(-c4ccc(C(=O)O)cc4)c3)ccc21 | 1
11 | Cc1cc2c(cc1-c1ncc(-c3ccc(C(=O)O)cc3)s1)C(C)(C)CCC2(C)C | > 1000
12 | CC1(C)CCC(C)(C)c2cc(-c3ccc4cc(C(=O)O)ccc4c3)ccc21 | > 1000
13 | Cc1ccc(-c2ccc(C(=O)O)cc2)cc1-c1cc2c(cc1C)C(C)(C)CCC2(C)C | > 1000
14 | Cc1cc2c(cc1-c1cccc(-c3ccc(C(=O)O)cc3)n1)C(C)(C)CCC2(C)C | > 1000
15 | CC1(C)CCC(C)(C)c2cc(-c3cccc(-c4ccc(C(=O)O)cc4)n3)ccc21 | 370

Biological target: T2, Retinoic acid receptor gamma (Homo sapiens, UniProt P13631)
T2 sequence (P13631 whole entry): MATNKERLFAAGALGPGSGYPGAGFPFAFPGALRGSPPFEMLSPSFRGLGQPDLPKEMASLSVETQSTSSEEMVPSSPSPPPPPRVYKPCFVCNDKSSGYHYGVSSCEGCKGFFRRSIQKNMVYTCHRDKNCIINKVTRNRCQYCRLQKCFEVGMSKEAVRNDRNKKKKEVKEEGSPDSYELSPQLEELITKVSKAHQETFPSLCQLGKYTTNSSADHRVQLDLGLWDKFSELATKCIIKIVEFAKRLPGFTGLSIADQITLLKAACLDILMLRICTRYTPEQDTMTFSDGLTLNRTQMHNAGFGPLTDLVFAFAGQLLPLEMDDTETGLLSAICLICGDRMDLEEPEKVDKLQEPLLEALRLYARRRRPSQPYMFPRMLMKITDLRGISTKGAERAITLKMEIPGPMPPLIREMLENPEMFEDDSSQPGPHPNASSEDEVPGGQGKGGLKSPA
Assay: Transcriptional activation in CV-1 cells expressing retinoic acid gamma receptor
Type: cell-based, Cercopithecidae
Conditions: not given

Row | SMILES | AC50 [nM]
16 | Cc1ccc(-c2ccc(C(=O)O)cc2)cc1-c1ccc2c(c1)C(C)(C)CCC2(C)C | < 1
17 | CC1(C)CCC(C)(C)c2cc(-c3cccc(-c4ccc(C(=O)O)cc4)c3)ccc21 | 2.3
18 | Cc1cc2c(cc1-c1ncc(-c3ccc(C(=O)O)cc3)s1)C(C)(C)CCC2(C)C | 220
19 | CC1(C)CCC(C)(C)c2cc(-c3ccc4cc(C(=O)O)ccc4c3)ccc21 | 68
20 | Cc1ccc(-c2ccc(C(=O)O)cc2)cc1-c1cc2c(cc1C)C(C)(C)CCC2(C)C | 1
21 | Cc1cc2c(cc1-c1cccc(-c3ccc(C(=O)O)cc3)n1)C(C)(C)CCC2(C)C | 1000
22 | CC1(C)CCC(C)(C)c2cc(-c3cccc(-c4ccc(C(=O)O)cc4)n3)ccc21 | > 1000

Biological target: T3, Retinoic acid receptor RXR-alpha (Homo sapiens) (UniProt P19793)
T3 sequence (whole entry): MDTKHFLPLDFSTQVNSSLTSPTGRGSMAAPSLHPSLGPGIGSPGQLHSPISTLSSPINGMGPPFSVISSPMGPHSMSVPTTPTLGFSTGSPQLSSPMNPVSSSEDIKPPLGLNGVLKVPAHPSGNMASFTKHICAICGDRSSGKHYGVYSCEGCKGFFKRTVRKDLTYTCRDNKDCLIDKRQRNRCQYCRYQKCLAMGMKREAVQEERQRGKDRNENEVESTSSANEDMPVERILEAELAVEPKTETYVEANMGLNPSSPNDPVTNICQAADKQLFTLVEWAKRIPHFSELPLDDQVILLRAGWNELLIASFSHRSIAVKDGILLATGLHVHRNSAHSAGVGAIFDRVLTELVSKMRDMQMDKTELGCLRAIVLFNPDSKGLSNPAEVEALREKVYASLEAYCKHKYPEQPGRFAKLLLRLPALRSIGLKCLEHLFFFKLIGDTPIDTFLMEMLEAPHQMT
Assay: Percent activation of Retinoic acid receptor RXR-alpha at 1 uM relative to 1 uM 9-cis-retinoic acid
Conditions: not given

Row | SMILES | Activation [%]
23 | Cc1ccc(-c2ccc(C(=O)O)cc2)cc1-c1ccc2c(c1)C(C)(C)CCC2(C)C | 85
24 | CC1(C)CCC(C)(C)c2cc(-c3cccc(-c4ccc(C(=O)O)cc4)c3)ccc21 | 27
25 | Cc1cc2c(cc1-c1ncc(-c3ccc(C(=O)O)cc3)s1)C(C)(C)CCC2(C)C | 8
26 | C/C(=C\c1ccc(C(=O)O)cc1)c1ccc2c(c1)C(C)(C)CCC2(C)C | 0
27 | CC1(C)CCC(C)(C)c2cc(-c3ccc4cc(C(=O)O)ccc4c3)ccc21 | 0
28 | Cc1ccc(-c2ccc(C(=O)O)cc2)cc1-c1cc2c(cc1C)C(C)(C)CCC2(C)C | 70
29 | Cc1cc2c(cc1-c1cccc(-c3ccc(C(=O)O)cc3)n1)C(C)(C)CCC2(C)C | 0
30 | CC1(C)CCC(C)(C)c2cc(-c3cccc(-c4ccc(C(=O)O)cc4)n3)ccc21 | 17

Biological target: T4, Retinoic acid receptor beta (Homo sapiens, UniProt P10826)
T4 sequence (P10826 whole entry): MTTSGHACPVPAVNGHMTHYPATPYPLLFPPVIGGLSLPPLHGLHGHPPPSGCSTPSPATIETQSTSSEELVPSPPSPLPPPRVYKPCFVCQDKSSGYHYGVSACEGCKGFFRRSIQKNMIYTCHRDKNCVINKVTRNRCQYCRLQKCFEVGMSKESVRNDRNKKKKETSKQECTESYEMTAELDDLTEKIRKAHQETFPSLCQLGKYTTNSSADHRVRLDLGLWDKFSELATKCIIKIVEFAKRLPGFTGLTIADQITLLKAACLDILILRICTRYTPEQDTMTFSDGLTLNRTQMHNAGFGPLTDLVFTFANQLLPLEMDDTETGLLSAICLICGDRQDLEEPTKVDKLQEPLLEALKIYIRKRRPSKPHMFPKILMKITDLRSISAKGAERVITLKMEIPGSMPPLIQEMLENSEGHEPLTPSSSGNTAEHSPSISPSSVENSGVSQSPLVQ
Assay: Transcriptional activation in CV-1 cells expressing Retinoic acid receptor beta
Type: cell-based, Cercopithecidae
Conditions: not given

Row | SMILES | AC50 [nM]
31 | Cc1ccc(-c2ccc(C(=O)O)cc2)cc1-c1ccc2c(c1)C(C)(C)CCC2(C)C | < 1
32 | CC1(C)CCC(C)(C)c2cc(-c3cccc(-c4ccc(C(=O)O)cc4)c3)ccc21 | 4.3
33 | Cc1cc2c(cc1-c1ncc(-c3ccc(C(=O)O)cc3)s1)C(C)(C)CCC2(C)C | 740
34 | CC1(C)CCC(C)(C)c2cc(-c3ccc4cc(C(=O)O)ccc4c3)ccc21 | 52
35 | Cc1ccc(-c2ccc(C(=O)O)cc2)cc1-c1cc2c(cc1C)C(C)(C)CCC2(C)C | 10
36 | Cc1cc2c(cc1-c1cccc(-c3ccc(C(=O)O)cc3)n1)C(C)(C)CCC2(C)C | > 1000
37 | CC1(C)CCC(C)(C)c2cc(-c3cccc(-c4ccc(C(=O)O)cc4)n3)ccc21 | 140

Biological target: T5, Retinoic acid receptor RXR-alpha (Homo sapiens, UniProt P19793)
T5 sequence (P19793 whole entry): T3 sequence (whole entry)
Assay: Transcriptional activation in CV-1 cells expressing Retinoic acid receptor RXR-alpha
Type: cell-based, Cercopithecidae
Conditions: not given

Row | SMILES | AC50 [nM]
38 | Cc1ccc(-c2ccc(C(=O)O)cc2)cc1-c1ccc2c(c1)C(C)(C)CCC2(C)C | 135
39 | CC1(C)CCC(C)(C)c2cc(-c3cccc(-c4ccc(C(=O)O)cc4)c3)ccc21 | > 1000
40 | Cc1cc2c(cc1-c1ncc(-c3ccc(C(=O)O)cc3)s1)C(C)(C)CCC2(C)C | > 1000
41 | C/C(=C\c1ccc(C(=O)O)cc1)c1ccc2c(c1)C(C)(C)CCC2(C)C | > 1000
42 | CC1(C)CCC(C)(C)c2cc(-c3ccc4cc(C(=O)O)ccc4c3)ccc21 | > 1000
43 | Cc1ccc(-c2ccc(C(=O)O)cc2)cc1-c1cc2c(cc1C)C(C)(C)CCC2(C)C | 430
44 | Cc1cc2c(cc1-c1cccc(-c3ccc(C(=O)O)cc3)n1)C(C)(C)CCC2(C)C | > 1000
45 | CC1(C)CCC(C)(C)c2cc(-c3cccc(-c4ccc(C(=O)O)cc4)n3)ccc21 | > 1000

Tested on: ZR-75-1
Assay: Inhibition of ZR-75-1 retinoid sensitive breast carcinoma cell proliferation at 1 uM
Type: functional
Conditions: Homo sapiens

Row | SMILES | inhibition at 1 µM [%]
46 | CC1=C(/C=C/C(C)=C\C=C\C(C)=C\C(=O)O)C(C)(C)CCC1 [ALITRETINOIN] | 59
47 | Cc1ccc(-c2ccc(C(=O)O)cc2)cc1-c1ccc2c(c1)C(C)(C)CCC2(C)C | 49
48 | CC1(C)CCC(C)(C)c2cc(-c3cccc(-c4ccc(C(=O)O)cc4)c3)ccc21 | 47
49 | CC1=C(/C=C/C(C)=C/C=C/C(C)=C/C(=O)O)C(C)(C)CCC1 [TRETINOIN] | 70
